The values below are quoted from earlier work in PMC8070829, “Discovery of New Coumarin-Based Lead with Potential Anticancer, CDK4 Inhibition and Selective Radiotheranostic Effect: Synthesis, 2D & 3D QSAR, Molecular Dynamics, In Vitro Cytotoxicity, Radioiodination, and Biodistribution Studies” (Molecules, 2021).

pKi: −log10 of the molar value.

One data set addresses CDK4. Particulars: cited from earlier work.
For a further data set, the target named is CDK6. As to conditions: cited from earlier work.

For the compound `CSc1nc(C)c(-c2nc(Nc3ccc(N4CCN(C)CC4)cn3)ncc2F)s1` [VIIc], the pKi at CDK4 was 8.70; on CDK6, 7.26.

Usually pKi stands for the negative decadic logarithm of the Ki, by convention in mol/L.
